Data published in ChEMBL document CHEMBL1201862, “PubChem BioAssay data set” (2004).
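All cell lines were grown in 96-well plates and treated with compound for 48 hours. At the GI50, growth is halved.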 Active and inactive are the calls of the source. Rule as the data show it: active = GI50 up to about 1.1 µM and inactive = higher.

Columns and labels:
Assay in all cases: DTP human tumour cell line panel, 48 h
MDA-N = test system: MDA-N
T47D = test system: T47D
DLD-1 = test system: DLD-1
DMS-114 = test system: DMS-114
DMS-273 = test system: DMS-273
HOP-18 = test system: HOP-18
XF498 = test system: XF498
LXFL 529 = test system: LXFL 529

With `CC1=C(SCCO)C(=O)c2ccccc2C1=O` the GI50 (MDA-N) was 5.09 µM (inactive) and the GI50 (T47D) was 3.21 µM (inactive).

In the case of `O=C(NN1C(=O)CSC1c1ccc(C(F)(F)F)cc1)c1ccncc1` (stereo unspecified), the GI50 (DLD-1) was > 100 µM (inactive), the GI50 (DMS-114) was > 100 µM (inactive) and the GI50 (DMS-273) was > 100 µM (inactive). The GI50 (HOP-18) was > 100 µM (inactive) and the GI50 (XF498) was > 100 µM (inactive).

With `CN1C(=O)C(C#N)C2C[C@@]1(C)Oc1ccccc12` (stereo partly specified) the GI50 (MDA-N) was > 100 µM (inactive).

In the case of `CCOc1ncn(-c2ccc(NC(=S)Nc3cccc(O)c3)cc2)n1`, the GI50 (MDA-N) was > 100 µM (inactive) and the GI50 (T47D) was > 100 µM (inactive).

In the case of `N#C/C(=C\c1ccc(Cl)cc1)c1nc2ccccc2c(=O)[nH]1`, the GI50 (MDA-N) was > 100 µM (inactive) and the GI50 (T47D) was > 100 µM (inactive).

For `CC12CCC(=O)N1c1cnccc1N2` (stereo unspecified), the GI50 (DLD-1) was > 100 µM (inactive), the GI50 (DMS-114) was > 100 µM (inactive) and the GI50 (DMS-273) was > 100 µM (inactive). The GI50 (LXFL 529) was > 100 µM (inactive).

In the case of `CC(=O)/N=C1\N/C(=C/c2cc([N+](=O)[O-])ccc2O)CN1C`, the GI50 (MDA-N) was > 100 µM (inactive) and the GI50 (T47D) was > 100 µM (inactive).

With `O=C1OC(CN2CCOCC2)CN1/N=C/c1ccc([N+](=O)[O-])o1` (stereo unspecified) [FURALTADONE] the GI50 (T47D) was 28.8 µM (inactive).

`Clc1cc(N/N=C(\c2ccccc2)c2ccccn2)ncn1` was tested, and the GI50 (MDA-N) was 3.33 µM (inactive) and the GI50 (T47D) was < 0.01 µM (active).

With `N#Cc1c(Cl)cc(Cl)n2c1nc1ccccc12` the GI50 (MDA-N) was 10.1 µM (inactive) and the GI50 (T47D) was 5.64 µM (inactive).

In the case of `CCCCCCCCCCCCCCCc1nnc(S)[nH]1`, the GI50 (DLD-1) was > 10 µM (inactive), the GI50 (DMS-114) was 60.4 µM (inactive) and the GI50 (LXFL 529) was 30.5 µM (inactive). For the same compound, the GI50 (XF498) was > 100 µM (inactive).

In the case of `COc1ccc2nc3c(C)cc4ccccc4n3c2c1`, the GI50 (MDA-N) was > 100 µM (inactive) and the GI50 (T47D) was > 100 µM (inactive).

For `O=c1oc2ccccc2n1P(=O)(Oc1ccc(Cl)cc1)n1c(=O)oc2ccccc21`, the GI50 (DLD-1) was > 100 µM (inactive), the GI50 (DMS-114) was > 100 µM (inactive) and the GI50 (DMS-273) was 78.9 µM (inactive). The GI50 (HOP-18) was > 100 µM (inactive).

For `N/C(=N\O)N/N=C/c1ncccc1O`, the GI50 (DLD-1) was 5.65 µM (inactive), the GI50 (DMS-114) was 8.05 µM (inactive) and the GI50 (DMS-273) was 7.28 µM (inactive). For the same compound, the GI50 (HOP-18) was 22.8 µM (inactive) and the GI50 (XF498) was 12.4 µM (inactive).

In the case of `COc1cc(OC)cc(Oc2nc3cc(F)c(F)cc3nc2-c2ccccc2)c1`, the GI50 (MDA-N) was > 100 µM (inactive) and the GI50 (T47D) was > 100 µM (inactive).

In the case of `CCCCC(CC)C(=O)Oc1ccc(C(=O)c2ccccc2)c(O)c1` (stereo unspecified), the GI50 (MDA-N) was 41.4 µM (inactive) and the GI50 (T47D) was 45.7 µM (inactive).

For `Nc1c(S(=O)(=O)O)cc(S(=O)(=O)O)c2ccc(/N=N/c3ccc(/C=C/c4ccc(/N=N/c5ccc6c(S(=O)(=O)O)cc(S(=O)(=O)O)c(N)c6c5O)cc4S(=O)(=O)O)c(S(=O)(=O)O)c3)c(O)c12`, the GI50 (DLD-1) was > 100 µM (inactive), the GI50 (DMS-114) was > 100 µM (inactive) and the GI50 (DMS-273) was > 100 µM (inactive). For the same compound, the GI50 (HOP-18) was > 100 µM (inactive) and the GI50 (XF498) was > 46.6 µM (inactive).

In the case of `CCOC(=O)CCc1c(C)c2c(O)cc(O)cc2oc1=O`, the GI50 (DLD-1) was > 100 µM (inactive), the GI50 (DMS-273) was > 100 µM (inactive) and the GI50 (HOP-18) was > 80.9 µM (inactive). For the same compound, the GI50 (XF498) was > 100 µM (inactive).
